These results are taken from PubChem BioAssay (NCI).

Each structure is given as a SMILES string.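 Where inhibition never reached the appropriate level, the endpoint shown equals the highest concentration tested. Otherwise, values were interpolated linearly from a five-concentration, 48-hour dose response in 96-well plates. The concentration for 50% growth inhibition is given as GI50. TGI: concentration producing complete growth inhibition.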 A value given as a limit tells only on which side of the number the result lay.

Some test systems named below: OVCAR-8 ovarian; SNB-19 CNS; SW-620 colon; NCI-H522 lung; LOX IMVI melanoma; RPMI-8226 leukemia; MDA-N; IGROV1 ovarian; HL-60(TB) leukemia; RXF 393 renal.
Common to all, as to assay: DTP human tumour cell line panel, 48 h

Regarding `CO[C@H]1SC[C@H](OC(C)=O)[C@H](OC(C)=O)[C@H]1OC(C)=O`, the TGI in the experiment with OVCAR-8 ovarian, with SNB-19 CNS, in the experiment with SW-620 colon, in the experiment on NCI-H522 lung, with LOX IMVI melanoma and in the experiment with RPMI-8226 leukemia was more than 100 µM each time. For the same compound, the TGI in the experiment with MDA-N, in the experiment on IGROV1 ovarian and in the experiment with HL-60(TB) leukemia was more than 100 µM each time.

With `C=C(C)OCOCCOC`, the TGI with OVCAR-8 ovarian, in the experiment with SNB-19 CNS, in the experiment on SW-620 colon, in the experiment with NCI-H522 lung, with LOX IMVI melanoma and in the experiment on RPMI-8226 leukemia was more than 100 µM throughout. Further, the TGI with MDA-N, in the experiment on IGROV1 ovarian and with HL-60(TB) leukemia was more than 100 µM throughout.

For `NC(=O)c1csc(C2(O)COC(CO)C2O)n1` (stereo not drawn), the TGI with OVCAR-8 ovarian, in the experiment on SNB-19 CNS, in the experiment on RXF 393 renal, in the experiment with SW-620 colon, with NCI-H522 lung and in the experiment on LOX IMVI melanoma was more than 100 µM throughout. Moreover, the TGI with RPMI-8226 leukemia, in the experiment with MDA-N and with IGROV1 ovarian was more than 100 µM in each case.

For `O=C(N/N=C(/CCN1CCCC1)CC(c1ccccc1)c1c(O)c2ccccc2oc1=O)c1ccncc1` (stereo not drawn), the TGI with OVCAR-8 ovarian, in the experiment with SNB-19 CNS, in the experiment with RXF 393 renal, in the experiment with SW-620 colon, in the experiment on NCI-H522 lung and with LOX IMVI melanoma was more than 100 µM each time. In addition, the figures for the TGI with RPMI-8226 leukemia, in the experiment with IGROV1 ovarian and with HL-60(TB) leukemia were more than 100 µM, more than 100 µM and 84.8 µM, respectively.

For the compound `Cc1ccc(C(=O)N/N=C(\N=Nc2ccccc2)c2ccc(N(C)C)cc2)cc1`, the TGI in the experiment on OVCAR-8 ovarian, in the experiment on SNB-19 CNS, in the experiment on SW-620 colon, with NCI-H522 lung, in the experiment with LOX IMVI melanoma and in the experiment on RPMI-8226 leukemia was more than 100 µM throughout. Also, the TGI in the experiment with MDA-N, in the experiment on IGROV1 ovarian and in the experiment on HL-60(TB) leukemia was more than 100 µM in each case.

With `COC(=O)C1CCc2sc3ncnc(Nc4cn[nH]c4C(=O)Nc4ccc(CN5CCN(C)CC5)cc4)c3c21` (stereo not drawn), the GI50 with OVCAR-8 ovarian was 0.711 µM; with SNB-19 CNS, 0.712 µM; in the experiment with RXF 393 renal, 0.244 µM; in the experiment with SW-620 colon it was 0.354 µM; in the experiment on NCI-H522 lung, 0.304 µM; in the experiment on LOX IMVI melanoma, 0.405 µM. Further, the GI50 in the experiment with RPMI-8226 leukemia was 1.41 µM; in the experiment with IGROV1 ovarian, 0.447 µM; with HL-60(TB) leukemia it was 1.68 µM. Besides, the TGI in the experiment on OVCAR-8 ovarian was 75.1 µM; in the experiment with SNB-19 CNS, more than 100 µM; in the experiment on RXF 393 renal, 0.891 µM; in the experiment on SW-620 colon it was 1.58 µM; with NCI-H522 lung, 1.63 µM; with LOX IMVI melanoma it was 1.79 µM. Further, the concentration for total growth inhibition (TGI) in the experiment on RPMI-8226 leukemia was 4.21 µM; with IGROV1 ovarian, more than 100 µM; in the experiment with HL-60(TB) leukemia it was 3.87 µM.

As to `CC1(C)OCC2OC3([C@@H]4OC(C)(C)O[C@H]4CO)OC(C)(C)OC3C2O1` (stereo partly drawn), the TGI in the experiment on OVCAR-8 ovarian, with SNB-19 CNS, in the experiment with RXF 393 renal, in the experiment with SW-620 colon, in the experiment with LOX IMVI melanoma and with RPMI-8226 leukemia was more than 100 µM each time. For the same compound, the TGI in the experiment with MDA-N and in the experiment on IGROV1 ovarian was more than 100 µM throughout.

For `COc1cc2cc(C(=O)N3C[C@H](CCl)c4c3cc(N)c3ccccc43)[nH]c2c(OC)c1OC`, the TGI in the experiment with OVCAR-8 ovarian was more than 50 µM; in the experiment with SNB-19 CNS, 1.24 µM; in the experiment with SW-620 colon it was more than 50 µM; in the experiment on NCI-H522 lung, less than 0.005 µM; with LOX IMVI melanoma it was 0.0581 µM; in the experiment with RPMI-8226 leukemia, more than 50 µM. Further, the TGI came out at 9.03 µM in the experiment with MDA-N, 0.393 µM in the experiment with IGROV1 ovarian and 0.164 µM in the experiment on HL-60(TB) leukemia. Further, the GI50 with SNB-19 CNS is 0.0252 µM; with SW-620 colon it was 0.005 µM; with NCI-H522 lung, less than 0.005 µM; in the experiment on LOX IMVI melanoma, 0.005 µM; with RPMI-8226 leukemia, 0.005 µM; with MDA-N, less than 0.001 µM. Moreover, the GI50 in the experiment with IGROV1 ovarian was 0.005 µM; in the experiment with HL-60(TB) leukemia, 0.0171 µM.

As to `CCCCOc1ccc(OCCCCCCCCCC[N+](C)(C)C)cc1`, the TGI in the experiment on OVCAR-8 ovarian is 22 µM; in the experiment with SNB-19 CNS, 23.3 µM; in the experiment on RXF 393 renal it was 3.34 µM; with SW-620 colon, 14.9 µM; with NCI-H522 lung it was 5.22 µM; with LOX IMVI melanoma, 3.81 µM. The results for the TGI in the experiment on RPMI-8226 leukemia, with IGROV1 ovarian and with HL-60(TB) leukemia were 2.33 µM, 3.52 µM and 1.49 µM, respectively.

For `O=S(=O)(O)c1ccc(N=Nc2ccc(N=Nc3ccc(/C=C/c4ccc(N=[N+]([O-])c5ccc(/C=C/c6ccc(N=Nc7ccc(N=Nc8ccc(S(=O)(=O)O)cc8)cc7)cc6S(=O)(=O)O)c(S(=O)(=O)O)c5)cc4S(=O)(=O)O)c(S(=O)(=O)O)c3)cc2)cc1`, the concentration for total growth inhibition (TGI) with OVCAR-8 ovarian, with SNB-19 CNS, in the experiment on RXF 393 renal, in the experiment with SW-620 colon, in the experiment with NCI-H522 lung and in the experiment on LOX IMVI melanoma was more than 100 µM throughout. Further, the total growth inhibition concentration (TGI) in the experiment on RPMI-8226 leukemia, in the experiment with IGROV1 ovarian and with HL-60(TB) leukemia was more than 100 µM in each case.

For `CC(C)C(CC(=O)OCC(CO)OC(=O)CC(C(C)C)C(C)C)C(C)C` (stereo not drawn), the TGI in the experiment on SNB-19 CNS is 28.4 µM; with RXF 393 renal it was 30.8 µM; in the experiment on SW-620 colon, 26.8 µM; in the experiment with NCI-H522 lung, 25.6 µM; in the experiment on MDA-N it was 30.1 µM; in the experiment on IGROV1 ovarian, 33.2 µM.

In the case of `CC(C)(C)OC(=O)NC(Cc1ccccc1)NC(=O)NC(=O)OCc1ccccc1` (stereo not drawn), the TGI is more than 100 µM in the experiment on OVCAR-8 ovarian; more than 100 µM in the experiment on SNB-19 CNS; 69.2 µM with RXF 393 renal; more than 100 µM in the experiment with SW-620 colon; more than 100 µM in the experiment with NCI-H522 lung; more than 100 µM in the experiment on RPMI-8226 leukemia. The TGI in the experiment on MDA-N and in the experiment on IGROV1 ovarian was more than 100 µM in each case.

Take `CN(C)CC1CCC/C(=C\c2ccc(OC(=O)c3ccc(Cl)cc3)cc2)C1=O` (stereo not drawn): the TGI was 3.23 µM with OVCAR-8 ovarian; 13.7 µM in the experiment on SNB-19 CNS; 2.71 µM with SW-620 colon; 1.98 µM with LOX IMVI melanoma; 1.99 µM in the experiment with RPMI-8226 leukemia; 7.45 µM with MDA-N. For the same compound, the TGI with IGROV1 ovarian stood at 8.27 µM; with HL-60(TB) leukemia, 11.9 µM.

The TGI is the concentration giving total growth inhibition. Read a high TGI as less potent growth arrest. As a reminder, the GI50 is the concentration at which growth is held to half of that of the control.
